Assay results taken from BindingDB's records for doi:10.7270/Q25B01BH (D3R/Abbott, 2015).

Target: Cyclin-dependent kinase 2 (Homo sapiens, UniProt P24941)
Assay: OctetRed_Method1
Text: OctetRed_Method1

Compound	Kd [µM]
CCn1c(SCC(=O)Nc2cccc(OC)c2)nnc1-c1ccncc1 [CS95]	> 100
Cc1cccc(NS(=O)(=O)c2cc(C(=O)Nc3ccccc3C(=O)N3CCOCC3)ccc2Cl)c1 [CS232]	> 100
COc1cc(OC)c(NC(=O)CSc2nnc(-c3ccncc3)n2C)cc1Cl [CS96]	> 100
CCn1c(SCC(=O)Nc2cccc(C(C)=O)c2)nnc1-c1ccncc1 [CS66]	> 100
CCn1c(SCC(=O)Nc2ccccc2OC)nnc1-c1c[nH]c2ccccc12 [CS213]	> 100
COc1cc(OC)c(NC(=O)CSc2nnc(-c3ccncc3)n2-c2ccccc2)cc1Cl [CS109]	> 100
COC(=O)c1ccccc1Oc1nc(NC(C)C)nc(NC(C)C)n1 [CS92]	> 100
Cc1ccc(S(=O)(=O)Nc2ccccc2CNc2cnc3ccccc3c2)cc1 [CS100]	> 100
Cc1cc(C)c(S(=O)(=O)N(C)CC(=O)N2CCC(C(N)=O)CC2)c(C)c1 [CS152]	> 100
COc1ccc(NC(=O)c2ccco2)cc1NC(=O)c1cccnc1 [CS85]	> 100
O=C(Nc1ccc(S(=O)(=O)Nc2ncccn2)cc1)c1c(Cl)cccc1Cl [CS93]	> 100
O=C(Cn1c(NCCO)nc2ccccc21)c1cccc([N+](=O)[O-])c1 [CS80]	> 100
COc1cc(-c2nnc(SCC(N)=O)n2C)cc(OC)c1OC [CS175]	> 100
CC(Sc1nc2ccccc2[nH]1)C(=O)Nc1ccc(S(N)(=O)=O)cc1 (centres undefined) [CS140]	> 100
COc1ccc2[nH]cc(CCNC(=O)Nc3ccc(Cl)c(Cl)c3)c2c1 [CS236]	> 100
CN1CCN(C(=O)CN(c2cc(C(F)(F)F)ccc2Cl)S(=O)(=O)c2ccccc2)CC1 [CS65]	> 100
CN(CC(=O)Nc1ccccc1C(=O)N1CCCC1)CS(=O)(=O)c1ccc(Br)cc1 [CS130]	> 100
CC1CCN(S(=O)(=O)c2ccc(Cl)c(C(=O)Nc3ccc(C(=O)O)cc3)c2)CC1 [CS34]	> 100
O=C(CSc1nnc(-c2ccccc2O)n1-c1ccccc1)Nc1cccc(C(=O)O)c1 [CS166]	> 100
COc1cc(OC)c(NC(=O)CSc2nnc(-c3ccccc3)n2C)cc1Cl [CS47]	> 100
CS(=O)(=O)N(CC(=O)Nc1ccccc1C(=O)N1CCOCC1)c1ccc(Cl)cc1 [CS160]	> 100

Compound	Kd [µM]
CCc1nnc(NS(=O)(=O)c2ccc(NC(=O)c3ccc(F)cc3)cc2)s1 [CS31]	> 100
COc1ccc(-n2c(SCC(N)=O)nnc2-c2cccs2)cc1 [CS73]	> 100
CSc1ccc(S(=O)(=O)NCc2ccccn2)cc1 [CS230]	> 100
O=S(=O)(NCc1ccccn1)c1cc(Cl)c(Cl)cc1Cl [CS104]	> 100
O=S(=O)(NCCSc1ccccn1)c1ccc(Br)cc1 [CS33]	> 100
COc1ccccc1NC(=O)CSc1nncn1C [CS198]	> 100
CCOC(=O)c1cnc(Nc2nc3ccccc3o2)nc1CN1CCN(c2ccccc2)CC1 [CS196]	> 100
COc1ccc(C(=O)CSc2nnc(-c3ccc(OC)c(OC)c3)n2-c2ccccc2)cc1 [CS67]	> 100
COC(=O)c1ccccc1NC(=O)CSc1nnc(C23C[C@H]4C[C@@H](C2)C[C@@H](C3)C4)n1C [CS38]	> 100
O=C(Cn1nc(-c2cccc([N+](=O)[O-])c2)c2ccccc2c1=O)NCC1CCCO1 (centres undefined) [CS102]	> 100
O=C(O)c1cccc(CSc2nnc(-c3ccncc3)o2)c1 [3-({[5-(pyridin-4-yl)-1,3,4-oxadiazol-2-yl]sulfanyl}methyl)benzoic acid]	> 100
CCn1c(SCC(=O)Nc2ccccc2OC)nnc1-c1ccco1 [CS119]	> 100
Cc1c(NS(=O)(=O)c2cccc3nonc23)c(=O)n(-c2ccccc2)n1C [CS150]	> 100
COc1ccc(CC(NC(C)=O)c2ccc3cccnc3c2O)cc1OC (centres undefined) [CS32]	> 100
Cc1c(NC(=O)C2CCCN2S(=O)(=O)c2ccccc2)c(=O)n(-c2ccccc2)n1C (centres undefined) [CS68]	> 100
Cc1ccc(NS(=O)(=O)c2cc(C(=O)Nc3ccccc3C(=O)N3CCOCC3)ccc2Cl)c(C)c1 [CS238]	> 100
COc1ccccc1NC(=O)CSc1nnc(-c2ccc(F)cc2)n1C [CS98]	> 100
CC(=O)Nc1ccc(S(=O)(=O)Nc2c(C)nn(-c3ccccc3)c2C)cc1 [CS70]	> 100
COc1ccc(NC(=O)CSc2nnc(-c3ccncc3)[nH]2)cc1 [CS41]	> 100
COc1cccc(NC(=O)CSc2nnnn2C)c1 [CS27]	> 100
CN1CCN(C(=O)CN(C)S(=O)(=O)c2ccc3ccccc3c2)CC1 [CS173]	> 100

Compound	Kd [µM]
CCOc1ccc2nc(SCC(=O)Nc3c(C)n(C)n(-c4ccccc4)c3=O)sc2c1 [CS49]	> 100
COc1ccc(NC(=O)CN2CCOCC2)c([N+](=O)[O-])c1 [CS189]	> 100
Cc1cc(C)c(S(=O)(=O)NCc2ccccn2)cc1C [CS105]	> 100
CS(=O)(=O)c1ccc(NC(=O)CSc2nnc(-c3ccccc3F)n2-c2ccccc2)cc1 [CS74]	> 100
CCc1ccccc1NC(=O)CSc1nnc(-c2cccc(OC)c2)n1C [CS169]	> 100
CN1CCN(C(=O)c2ccccc2N(Cc2ccccc2)S(C)(=O)=O)CC1 [CS76]	> 100
COc1ccccc1NC(=O)CSc1nnc(-c2ccccc2Cl)n1-c1ccccc1 [CS222]	> 100
Cc1ccnc(NS(=O)(=O)c2ccc(NC(=O)c3cncc(Br)c3)cc2)n1 [CS165]	> 100
Cc1nonc1OCCNc1cc(N2CCOCC2)ccc1[N+](=O)[O-] [CS204]	> 100
O=S(=O)(NCc1ccccn1)c1ccc(Cl)c(Cl)c1Cl [CS116]	> 100
COc1ccc(C(=O)C(C)Oc2cccc(NC(=O)c3cccc([N+](=O)O)c3)c2)cc1 (centres undefined) [CS112]	> 100
COc1ccc(OCC(=O)Nc2cc(-c3nn4c(C)nnc4s3)ccc2C)cc1 [CS36]	> 100
O=C1c2ccccc2C(=O)N1CCCc1nc(-c2cccc([N+](=O)[O-])c2)no1 [CS148]	> 100
Cc1nc2ncnn2c(O)c1NS(=O)(=O)c1ccc(Br)cc1 [CS237]	> 100
O=C(COc1ccccc1[N+](=O)[O-])Nc1ccccc1N1CCOCC1 [CS46]	> 100
O=C(Cn1ccc([N+](=O)[O-])n1)N1CCCc2ccccc21 [CS154]	> 100
COc1cc(NC(=O)CSc2nncn2C)cc(OC)c1OC [CS202]	> 100
Cn1c(Cc2ccccc2)nnc1Sc1ccc([N+](=O)[O-])cc1C(=O)N1CCOCC1 [CS188]	> 100
CC(=O)Nc1cccc(-c2nnc(SCC(=O)Nc3ccc(C(C)=O)cc3)n2C)c1 [CS71]	> 100
COc1ccccc1NC(=O)CSc1nnc(-c2ccc([N+](=O)[O-])cc2)n1-c1ccccc1 [CS82]	> 100
O=C(CSc1nnc(-c2ccncc2)o1)Nc1ccc(F)cc1 [CS234]	> 100

Compound	Kd [µM]
CC(=O)c1cccc(NC(=O)CSc2nnc(-c3cc4ccccc4cc3O)n2C)c1 [CS110]	> 100
COc1ccc([N+](=O)[O-])cc1NC(=O)C(C)Oc1ccccc1C (centres undefined) [CS177]	> 100
COC(=O)c1ccccc1NC(=O)CSc1nnc(-c2ccc(OC)cc2)n1C [CS72]	> 100
COC(=O)c1ccc(NC(=O)CSc2nnnn2-c2ccccc2OC)cc1 [CS77]	> 100
COc1ccccc1CNC(=O)CSc1nnnn1-c1c(C)cccc1C [CS184]	> 100
Cn1c(COc2cccc3cccnc23)nnc1SCC(N)=O [CS64]	> 100
COc1ccc(NC(=O)CCSc2nnc3scc(-c4ccc(C)cc4)n23)cc1 [CS37]	> 100
O=C(Cc1ccccc1[N+](=O)[O-])Nc1ccccc1C(=O)N1CCOCC1 [CS209]	> 100
O=C(Cn1cnc([N+](=O)[O-])n1)Nc1ccc(N2CCOCC2)c(Cl)c1 [CS200]	> 100
O=C(CC1OCCN(Cc2ccccc2)C1=O)Nc1ccc2c(c1)OCCO2 (centres undefined) [CS208]	> 100
COc1cc([N+](=O)[O-])ccc1NC(=O)CN1CCOCC1 [CS142]	> 100
Cn1nc([N+](=O)[O-])nc1Oc1ccccc1C(=O)N1CCOCC1 [CS231]	> 100
CCOc1ccc(C(C)=O)cc1Cc1c(O)nc(N)nc1O [CS55]	> 100
NC(=O)c1ccc(NCCCN2CCOCC2)c([N+](=O)[O-])c1 [CS69]	> 100
COc1ccccc1-n1nnnc1SCC(=O)Nc1ccccc1SC [CS197]	> 100
COc1cccc(-n2nnnc2SCC(=O)Nc2c(C)cc(C)cc2C)c1 [CS81]	> 100
COC(=O)c1ccc(NC(=O)CSc2nnc(-c3ccc(NC(C)=O)cc3)n2C)cc1 [CS59]	> 100
COc1ccc(-c2nnc(SCC(=O)Nc3c(F)cc(F)cc3Br)n2C)cc1 [CS78]	> 100
O=C(CSc1nnc(-c2ccc([N+](=O)[O-])cc2)n1-c1ccccc1)N1CCOCC1 [CS58]	> 100
COc1ccc(NC(=O)CSc2nnnn2C)cc1 [CS53]	> 100
COc1ccc2c(C)nc(Nc3nc(C)cc(O)n3)nc2c1	> 100
